In ChEMBL document CHEMBL1146413, “New polyhalogenated monoterpenes from the sea hare Aplysia punctata” (1997) one finds EC50 data, which are given here for three molecules.

Converted amounts (≈) assume the structure as drawn.

What all share (assay type): functional
What all share (conditions): read-out: ED50 (the source's name)

One experiment relates to A549. As to the kind of experiment: Cytotoxicity against human A549 cells.
A further experiment has as its system SK-MEL-28. As to the kind of experiment: Cytotoxicity against human SK-MEL-28 cells.
The next experiment has as its system P388. As to the kind of experiment: Cytotoxicity against mouse P388 cells.
Another experiment concerns HT-29. The experiment in a line: Cytotoxicity against human HT-29 cells.

For `CC(=O)OCCC(C)C(=O)CC/C(=C/Cl)C(Cl)Cl` (configuration not stated), the EC50 with A549 was found to be 1.5 µg/mL (≈ 4.75 µM); in the experiment on SK-MEL-28, 1.5 µg/mL (≈ 4.75 µM); in the experiment with P388, 2.5 µg/mL (≈ 7.92 µM); in the experiment on HT-29 it was 2.5 µg/mL (≈ 7.92 µM).
With `CC(=O)OCCC(C)C(=O)CC/C(=C\Cl)C(Cl)Cl` (configuration not stated), the EC50 is 1.5 µg/mL (≈ 4.75 µM) in the experiment on A549, 1.5 µg/mL (≈ 4.75 µM) in the experiment on SK-MEL-28, 2.5 µg/mL (≈ 7.92 µM) in the experiment on P388 and 2.5 µg/mL (≈ 7.92 µM) with HT-29.
For the molecule `CC(=O)OCC/C(C)=C(Cl)/C=C/C(C)(Cl)CBr` (configuration not stated), the EC50 is 1.5 µg/mL (≈ 4.36 µM) in the experiment on A549, 1.5 µg/mL (≈ 4.36 µM) with SK-MEL-28, 2.5 µg/mL (≈ 7.27 µM) with P388 and 2.5 µg/mL (≈ 7.27 µM) in the experiment on HT-29.
